Experimental findings from patent US12459899B2, “Isoquinolinone derivatives, method for preparing the same, and pharmaceutical composition for preventing or treating poly(ADP-ribose) polymerase-1-related diseases, comprising the same as active ingredient” (DIGMBIO. INC., priority 2019, dated 2025) are described below.

The assay has as its target PARP-1 (poly[ADP-ribose] polymerase 1) enzyme (Homo sapiens (Human), UniProt P09874). Put plainly: PARP-1 (poly[ADP-ribose] polymerase 1) enzyme inhibitory ability, Trevigen assay kit. It counts as biochemical. Particulars: for inhibition at 0.001 µM: 1 nM compound, read-out: PAR P-1 Inhibitory ability at 1 nM. The protocol:
In order to evaluate the PARP-1 (poly[ADP-ribose] polymerase 1) enzyme inhibitory ability of the compounds according to the present invention, an experiment was conducted as follows.
Specifically, in order to evaluate the PARP-1 (poly[ADP-ribose] polymerase 1) enzyme inhibitory ability of the compounds of Examples 1 to 276 according to the present invention, the PARP-1 (poly[ADP-ribose] polymerase 1) activity was investigated in the following manner using an assay kit purchased from Trevigen, Inc. (Catalog number: 4677-096-K). 50 μL of 1×PARP buffer (provided by Trevigen's kit) was dispensed into a 96-well plate coated with histones per each well, and then rehydrated for 30 minutes. After removing the 1×PARP buffer present in the well, PARP-1 (poly[ADP-ribose] polymerase 1) enzyme (0.5 unit/well) and 1 μM concentration or various concentrations of the compounds of Example 1 to 276 were added at room temperature and reacted for 10 minutes. Thereafter, each well was treated with 25 μL of 1×PARP cocktail (biotinylated NAD, activated DNA, provided by Trevigen's kit), and then reacted at room temperature for 1 hour. After the reaction was completed, each well was washed twice with PBS (7.5 mM Na2HPO4, 2.5 mM NaH2PO4, 145 mM NaCl) containing 0.1% triton X-100, and washed twice with PBS. Then, 50 μL of strep-HRP (streptavidin-linked peroxidase) was added and reacted at room temperature for 1 hour, and then washed twice with PBS containing 0.1% triton X-100, and washed twice with PBS. After removing all PBS, 50 μL of TACS-sapphire, a substrate, was added, and reacted at room temperature for 15 minutes while blocking the light. After the reaction was terminated by treatment with 50 μL of 5% phosphoric acid to each well, the absorbance was measured at 450 nm using a microplate reader Victor3 from PerkinElmer, Inc. to quantify the value.

PARP-1 (poly[ADP-ribose] polymerase 1) enzyme, sequence (P09874 whole entry): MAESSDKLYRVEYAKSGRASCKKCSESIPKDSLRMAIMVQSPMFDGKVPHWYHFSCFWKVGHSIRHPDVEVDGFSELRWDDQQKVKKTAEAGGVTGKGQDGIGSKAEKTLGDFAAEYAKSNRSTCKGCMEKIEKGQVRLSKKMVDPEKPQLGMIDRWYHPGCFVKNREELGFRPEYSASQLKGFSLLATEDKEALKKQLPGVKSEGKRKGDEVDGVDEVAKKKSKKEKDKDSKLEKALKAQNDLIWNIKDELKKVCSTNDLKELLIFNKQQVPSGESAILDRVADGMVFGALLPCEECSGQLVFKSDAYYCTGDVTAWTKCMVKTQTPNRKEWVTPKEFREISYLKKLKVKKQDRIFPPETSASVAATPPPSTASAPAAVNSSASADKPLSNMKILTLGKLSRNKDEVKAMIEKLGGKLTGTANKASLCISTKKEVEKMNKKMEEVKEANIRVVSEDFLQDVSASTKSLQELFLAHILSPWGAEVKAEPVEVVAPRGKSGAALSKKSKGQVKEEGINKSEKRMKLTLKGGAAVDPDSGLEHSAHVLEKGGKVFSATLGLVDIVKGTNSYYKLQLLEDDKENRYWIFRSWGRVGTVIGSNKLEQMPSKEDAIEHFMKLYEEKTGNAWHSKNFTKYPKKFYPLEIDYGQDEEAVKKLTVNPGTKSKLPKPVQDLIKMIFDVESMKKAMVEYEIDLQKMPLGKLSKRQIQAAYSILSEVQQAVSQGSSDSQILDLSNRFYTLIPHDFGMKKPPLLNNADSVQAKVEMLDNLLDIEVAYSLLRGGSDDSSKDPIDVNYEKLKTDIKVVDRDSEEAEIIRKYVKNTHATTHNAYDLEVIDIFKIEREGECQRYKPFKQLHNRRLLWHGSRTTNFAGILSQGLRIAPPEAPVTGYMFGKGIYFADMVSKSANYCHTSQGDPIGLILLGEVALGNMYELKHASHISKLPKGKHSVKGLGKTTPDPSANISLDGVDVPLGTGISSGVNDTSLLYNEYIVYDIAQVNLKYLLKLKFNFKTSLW

Regarding `Cc1cc(F)cc2c(=O)[nH]c(CCCN3CC=C(c4ccc(C#N)cn4)CC3)cc12` [Example 60, 1′-(3-(7-fluoro-5-methyl-1-oxo-1,2-dihydroisoquinolin-3-yl)propyl)-1′,2′,3′,6′-tetrahydro-[2,4′-bipyridine]-5-carbonitrile], the inhibition at 0.001 µM is < 50%.
Still for that read-out and setting: in the case of `Cc1cc(F)cc2c(=O)[nH]c(CCCN3CC=C(c4ccc(F)cn4)CC3)cc12` [Example 62, 7-fluoro-3-(3-(5-fluoro-3′,6′-dihydro-[2,4′-bipyridine]-1′(2′H)-yl)propyl)-5-methylisoquinolin-1(2H)-one] it was < 50%; in that of `Cc1cc(F)cc2c(=O)[nH]c(CCCN3CC=C(c4ccc(F)nc4)CC3)cc12` [Example 63, 7-fluoro-3-(3-(6-fluoro-3′,6′-dihydro-[3,4′-bipyridine]-1′(2′H)-yl)propyl)-5-methylisoquinolin-1(2H)-one], < 50%; in that of `Cc1cc(F)cc2c(=O)[nH]c(CCCN3CC=C(c4ccc(C(F)(F)F)cc4)CC3)cc12` [Example 64, 7-fluoro-5-methyl-3-(3-(4-(4-(trifluoromethyl)phenyl)-3,6-dihydropyridin-1(2H)-yl)propyl)isoquinolin-1(2H)-one], < 50%.
As for `Cc1ccc(F)c2c(=O)[nH]c(CCCN3CCN(C(=O)c4cccc(F)c4)CC3)cc12` [Example 65, 8-fluoro-3-(3-(4-(3-fluorobenzoyl)piperazin-1-yl)propyl)-5-methylisoquinolin-1(2H)-one], the inhibition at 0.001 µM was < 50%.
For `Cc1ccc(F)c2c(=O)[nH]c(CCCN3CCN(C(=O)c4ccccc4)CC3)cc12` [Example 66, 3-(3-(4-benzoylpiperazin-1-yl)propyl)-8-fluoro-5-methylisoquinolin-1(2H)-one], the inhibition at 0.001 µM is < 50%.
Still for that read-out and setting: in the case of `Cc1ccc(F)c2c(=O)[nH]c(CCCN3CCN(C(=O)c4ccc(F)cc4)CC3)cc12` [Example 67, 8-fluoro-3-(3-(4-(4-fluorobenzoyl)piperazin-1-yl)propyl)-5-methylisoquinolin-1(2H)-one] it was < 50%.
Regarding `N#Cc1ccc(N2CCN(C(=O)CCc3cc4cccc(F)c4c(=O)[nH]3)CC2)cc1` [Example 68, 4-(4-(3-(8-fluoro-1-oxo-1,2-dihydroisoquinolin-3-yl)propanoyl)piperazin-1-yl)benzonitrile], the inhibition at 0.001 µM is < 50%. Where the note is “PARP-1 enzyme activity”, this compound returned a half-inhibitory concentration (IC50) of 1.9 nM.
In the case of `N#Cc1ccc(C2=CCN(C(=O)CCc3cc4cccc(F)c4c(=O)[nH]3)CC2)cc1` [Example 69, 4-(1-(3-(8-fluoro-1-oxo-1,2-dihydroisoquinolin-3-yl)propanoyl)-1,2,3,6-tetrahydropyridin-4-yl)benzonitrile], the inhibition at 0.001 µM was < 50%.
In the case of `N#Cc1ccc(N2CCN(C(=O)CCc3cc4cccc(F)c4c(=O)[nH]3)CC2)cn1` [Example 70, 5-(4-(3-(8-fluoro-1-oxo-1,2-dihydroisoquinolin-3-yl)propanoyl)piperazin-1-yl)picolinonitrile], the inhibition at 0.001 µM was < 50%.
In the case of `N#Cc1ccc(N2CCN(C(=O)CCc3cc4cccc(F)c4c(=O)[nH]3)CC2)nc1` [Example 71, 6-(4-(3-(8-fluoro-1-oxo-1,2-dihydroisoquinolin-3-yl)propanoyl)piperazin-1-yl)nicotinonitrile], the inhibition at 0.001 µM was < 50%.
Consider `N#Cc1ccc(N2CCN(C(=O)CCc3cc4cccc(F)c4c(=O)[nH]3)CC2)cc1F` [Example 72, 2-fluoro-4-(4-(3-(8-fluoro-1-oxo-1,2-dihydroisoquinolin-3-yl)propanoyl)piperazin-1-yl)benzonitrile], for which the inhibition at 0.001 µM was < 50%.
As to `N#Cc1ccc(N2CCN(C(=O)CCc3cc4cccc(F)c4c(=O)[nH]3)CC2)c(F)c1` [Example 73, 3-fluoro-4-(4-(3-(8-fluoro-1-oxo-1,2-dihydroisoquinolin-3-yl)propanoyl)piperazin-1-yl)benzonitrile], the inhibition at 0.001 µM was < 50%.
The same measure, in the same setting: in the case of `N#Cc1ccccc1N1CCN(C(=O)CCc2cc3cccc(F)c3c(=O)[nH]2)CC1` [Example 74, 2-(4-(3-(8-fluoro-1-oxo-1,2-dihydroisoquinolin-3-yl)propanoyl)piperazin-1-yl)benzonitrile] it was < 50%.
In the case of `O=C(CCc1cc2cccc(F)c2c(=O)[nH]1)N1CCN(c2ccccc2F)CC1` [Example 75, 8-fluoro-3-(3-(4-(2-fluorophenyl)piperazin-1-yl)-3-oxopropyl)isoquinolin-1(2H)-one], the inhibition at 0.001 µM is < 50%.
With `N#Cc1cc(F)ccc1N1CCN(C(=O)CCc2cc3cccc(F)c3c(=O)[nH]2)CC1` [Example 76, 5-fluoro-2-(4-(3-(8-fluoro-1-oxo-1,2-dihydroisoquinolin-3-yl)propanoyl)piperazin-1-yl)benzonitrile], the inhibition at 0.001 µM is < 50%.
The same measure, in the same setting: the value for `N#Cc1cccc(N2CCN(C(=O)CCc3cc4cccc(F)c4c(=O)[nH]3)CC2)c1` [Example 77, 3-(4-(3-(8-fluoro-1-oxo-1,2-dihydroisoquinolin-3-yl)propanoyl)piperazin-1-yl)benzonitrile] was < 50%; that for `O=C(CCc1cc2cccc(F)c2c(=O)[nH]1)N1CCN(c2ccc(F)cc2F)CC1` [Example 78, 3-(3-(4-(2,4-difluorophenyl)piperazin-1-yl)-3-oxopropyl)-8-fluoroisoquinolin-1(2H)-one] was < 50%.
For `N#Cc1ccc(F)c(N2CCN(C(=O)CCc3cc4cccc(F)c4c(=O)[nH]3)CC2)c1` [Example 79, 4-fluoro-3-(4-(3-(8-fluoro-1-oxo-1,2-dihydroisoquinolin-3-yl)propanoyl)piperazin-1-yl)benzonitrile], the inhibition at 0.001 µM is < 50%.
Regarding `N#Cc1cc(N2CCN(C(=O)CCc3cc4cccc(F)c4c(=O)[nH]3)CC2)ccc1F` [Example 80, 2-fluoro-5-(4-(3-(8-fluoro-1-oxo-1,2-dihydroisoquinolin-3-yl)propanoyl)piperazin-1-yl)benzonitrile], the inhibition at 0.001 µM is < 50%.
On to `N#Cc1ccc(F)cc1N1CCN(C(=O)CCc2cc3cccc(F)c3c(=O)[nH]2)CC1` [Example 81, 4-fluoro-2-(4-(3-(8-fluoro-1-oxo-1,2-dihydroisoquinolin-3-yl)propanoyl)piperazin-1-yl)benzonitrile], for which the inhibition at 0.001 µM is < 50%.
Turning to `O=C(CCc1cc2cccc(F)c2c(=O)[nH]1)N1CC=C(c2ccccc2F)CC1` [Example 82, 8-fluoro-3-(3-(4-(2-fluorophenyl)-3,6-dihydropyridin-1(2H)-yl)-3-oxopropyl)isoquinolin-1(2H)-one], the inhibition at 0.001 µM was < 50%.
For the compound `O=C(CCc1cc2cccc(F)c2c(=O)[nH]1)N1CC=C(c2cccc(F)c2)CC1` [Example 83, 8-fluoro-3-(3-(4-(3-fluorophenyl)-3,6-dihydropyridin-1(2H)-yl)-3-oxopropyl)isoquinolin-1(2H)-one], the inhibition at 0.001 µM was < 50%.
Take `N#Cc1cc(F)cc(C2=CCN(C(=O)CCc3cc4cccc(F)c4c(=O)[nH]3)CC2)c1` [Example 84, 3-fluoro-5-(1-(3-(8-fluoro-1-oxo-1,2-dihydroisoquinolin-3-yl)propanoyl)-1,2,3,6-tetrahydropyridin-4-yl)benzonitrile]: the inhibition at 0.001 µM is < 50%.
Same read-out and setting: in the case of `O=C(CCc1cc2cccc(F)c2c(=O)[nH]1)N1CC=C(c2ccc(F)nc2)CC1` [Example 85, 8-fluoro-3-(3-(6-fluoro-3′,6′-dihydro-[3,4′-bipyridine]-1′(2′H)-yl)-3-oxopropyl)isoquinolin-1(2H)-one] it was < 50%; in that of `O=C(CCc1cc2cccc(F)c2c(=O)[nH]1)N1CC=C(c2ccc(F)cn2)CC1` [Example 86], < 50%.
As to `N#Cc1cc(C2=CCN(C(=O)CCc3cc4cccc(F)c4c(=O)[nH]3)CC2)ccc1F` [Example 87, 2-fluoro-5-(1-(3-(8-fluoro-1-oxo-1,2-dihydroisoquinolin-3-yl)propanoyl)-1,2,3,6-tetrahydropyridin-4-yl)benzonitrile], the inhibition at 0.001 µM was < 50%.
On to `O=C(CCc1cc2cccc(F)c2c(=O)[nH]1)N1CCN(c2cccc(F)c2)CC1` [Example 89, 8-fluoro-3-(3-(4-(3-fluorophenyl)piperazin-1-yl)-3-oxopropyl)isoquinolin-1(2H)-one], for which the inhibition at 0.001 µM is < 50%.
For `O=C(CCc1cc2cccc(F)c2c(=O)[nH]1)N1CC=C(c2ccnc(F)c2)CC1` [Example 92, 8-fluoro-3-(3-(2′-fluoro-3,6-dihydro-[4,4′-bipyridine]-1(2H)-yl)-3-oxopropyl)isoquinolin-1(2H)-one], the inhibition at 0.001 µM was < 50%.
Same read-out and setting: the value for `N#Cc1ccc(C2=CCN(C(=O)CCc3cc4cccc(F)c4c(=O)[nH]3)CC2)cn1` [Example 93, 1′-(3-(8-fluoro-1-oxo-1,2-dihydroisoquinolin-3-yl)propanoyl)-1′,2′,3′,6′-tetrahydro-[3,4′-bipyridine]-6-carbonitrile] was < 50%.
